This is an account of results in US20240238265A1 (priority 2020, published 2024).

Where two headings read alike, the source gives them in different places.

Series [1] relates to pseudotyped VSV expressing EBOV glycoprotein. Description: microbe, parasite or virus in culture. In kind it is cell-based, Ebola virus (EBOV). To be noted: read-out: EC50 (uM) Pseudotype Assays EBOV.
In series [2] the test system is pseudotyped VSV expressing BDBV glycoprotein. The experiment in a line: microbe, parasite or virus in culture. Particulars: Vesicular stomatitis virus, Vero, 24 h, read-out: EC50 (uM) Pseudotype Assays BDBV. It is filed as cell-based, Bundibugyo virus (BDBV).
In series [3] the test system is pseudotyped VSV expressing SUDV glycoprotein. Description: microbe, parasite or virus in culture. In kind it is cell-based, Sudan virus (SUDV). To be noted: read-out: EC50 (uM) Pseudotype Assays SUDV.
A further series in a line: in vitro. Particulars: African green monkey.
The subject of series [4] is pseudotyped VSV expressing MARV glycoprotein. The experiment in a line: microbe, parasite or virus in culture. It is filed as cell-based, Marburg virus (MARV). To be noted: Vesicular stomatitis virus, Vero, 24 h, read-out: EC50 (uM) Pseudotype Assays MARV.
For series [5] the following is noted: 1 h, pH 7.4.
The conditions of series [6]: 1 h, pH 7.4. The source holds these as a separate data set.
The conditions of series [7]: 1 h, pH 7.4. This is another data set of the same source.
The conditions of series [8]: 1 h, pH 7.4. The source holds these as a separate data set.
The mark [9] stands for this setting: Vesicular stomatitis virus, Vero, 24 h.

One may read the EC50 as the concentration giving half of the maximal effect. With `C[C@]12CC3CC(C(=S)N4CCC(N)CC4)(C1)C[C@@](c1ccccc1)(C3)C2` [Example A4], the EC50 was determined as 0.085 µM in [1] (Zaire ebolavirus, Vero, 24 h); 0.06 µM in series [2]; 0.04 µM in series [3] (setting [9]). The compound also registered a CC50 in “in vitro” of 4090 nM.

Regarding `CC12CC3CC(C(=S)N[C@H]4CN5CCC4CC5)(C1)CC(c1ccccc1)(C3)C2` (mixture of isomers) [Example C3], the EC50 in [1] (Zaire ebolavirus, Vero, 24 h) was determined as 0.17 µM; in series [2], 0.24 µM; in series [3] (setting [9]), 0.1 µM.

As for `C[C@]12CC3CC(C(=S)NC4CCNCC4)(C1)C[C@@](c1ccccc1)(C3)C2` [Example A6], the EC50 is 0.064 µM in series [1] (Zaire ebolavirus, Vero, 24 h); 0.085 µM in [2]; 0.08 µM in series [3] (setting [9]). This compound came in with a CC50 in the series “in vitro” of 4720 nM.

Take `CCC1(Cl)C2CC3(C(=O)N4CC[C@H](N)C(C)(C)C4)CC1CC(c1ccccc1)(C2)C3` (stereo partly drawn) [Example H3, ((S)-4-amino-3,3-dimethylpiperidin-1-yl)(6-chloro-6-ethyl-3-phenyladamantan-1-yl)methanone]: the EC50 in [1] (Zaire ebolavirus, Vero, 24 h) came to 0.063 µM; in [3] (setting [9]) it was 0.17 µM. In addition, the CC50 in the series “in vitro” was 14700 nM.

`CC1(C)CN(C(=O)C23CC4CC(CCl)(C2)CC(c2ccccc2)(C4)C3)CC[C@@H]1N` (mixture of isomers) [Example E2, rac-((S)-4-amino-3,3-dimethylpiperidin-1-yl)(3-(chloromethyl)-5-phenyladamantan-1-yl)methanone]: the EC50 was 0.057 µM in series [1] (Zaire ebolavirus, Vero, 24 h); 0.35 µM in series [2]; 0.165 µM in series [3] (setting [9]); more than 1 µM in [4]. In the series “in vitro”, this compound showed a CC50 of 36900 nM.

Turning to `CC12CC3CC(C(=S)N[C@H]4CC[C@H](N)CC4)(C1)CC(c1ccccc1)(C3)C2` (mixture of isomers) [Example C2], the EC50 in series [1] (Zaire ebolavirus, Vero, 24 h) was determined as 0.06 µM; in series [2], 0.085 µM; in series [3] (setting [9]) it was 0.07 µM.

Turning to `N[C@H]1CC[C@H](NC(=S)C2C3CC4CC2CC(c2ccccc2)(C4)C3)CC1` (stereo partly drawn) [Example D1, trans-N-(4-aminocyclohexyl)-5-phenyladamantane-2-carbothioamide], the EC50 in [1] (Zaire ebolavirus, Vero, 24 h) worked out at 0.21 µM; in [2] it was 0.3 µM; in series [3] (setting [9]), 0.29 µM.

With `CC1(C)CN(C(=S)C23CC4C[C@](C)(C2)C[C@@](c2ccccc2)(C4)C3)CC[C@@H]1N` [Example B1], the EC50 in series [1] (Zaire ebolavirus, Vero, 24 h) is 0.74 µM; in series [2], 0.4 µM; in series [3] (setting [9]) it was 0.26 µM.

As for `N[C@H]1CC[C@H](NC(=O)C23CC4CC(c5ccccc5)(CC(C2)C4CC(F)F)C3)CC1` (stereo partly drawn) [Example H6, trans-N-(4-aminocyclohexyl)-6-(2,2-difluoroethyl)-3-phenyladamantane-1-carboxamide], the EC50 in series [1] (Zaire ebolavirus, Vero, 24 h) was found to be 0.02 µM; in series [3] (setting [9]) it was 0.18 µM. In the series “in vitro”, this compound showed a CC50 of 22200 nM.

Regarding `C[C@]12CC3CC(C(=S)N[C@H]4CC[C@@H](N)CC4)(C1)C[C@@](c1ccccc1)(C3)C2` [Example A5], the EC50 in series [1] (Zaire ebolavirus, Vero, 24 h) was 0.12 µM; in series [2], 0.19 µM; in series [3] (setting [9]) it was 0.125 µM.

Consider `N[C@H]1CC[C@H](NC(=O)C23CC4CC(c5ccccc5)(CC(C2)C4CCF)C3)CC1` (stereo partly drawn) [Example H4, trans-N-(4-aminocyclohexyl)-6-(2-fluoroethyl)-3-phenyladamantane-1-carboxamide], for which the EC50 in series [1] (Zaire ebolavirus, Vero, 24 h) is 0.014 µM; in series [3] (setting [9]) it was 0.16 µM. Moreover, in series [5], the “Percent parent compound remaining at 60 minutes in liver microsomes, Human” value (“Percent parent compound remaining … Human” for short) turned out to be 81%. The “Percent parent compound remaining at 60 minutes in liver microsomes, Mouse” value in series [6] is recorded as 39%. Besides, the “Percent parent compound remaining at 60 minutes in liver microsomes, Guinea Pig” value (from here on “Percent parent compound remaining … Guinea Pig”) in [7] is reported as 80.5%. Besides, the CC50 in “in vitro” amounted to 25100 nM.

Regarding `CC1(O)C2CC3(C(=O)N[C@H]4CC[C@H](N)CC4)CC1CC(c1ccccc1)(C2)C3` (stereo partly drawn) [Example H2, trans-N-(4-aminocyclohexyl)-6-hydroxy-6-methyl-3-phenyladamantane-1-carboxamide], the half-maximal effective concentration (EC50) in [1] and in series [3] was more than 1 µM in each case.

Regarding `CC(C)CC1C2CC3(C(=O)N[C@H]4CC[C@H](N)CC4)CC1CC(c1ccccc1)(C2)C3` (stereo partly shown) [Example F4], the 50% effective concentration (EC50) worked out at 0.016 µM in series [1] (Zaire ebolavirus, Vero, 24 h); 0.3 µM in series [2]; 0.86 µM in series [3] (setting [9]); 1.38 µM in [4]. Besides, in the series “in vitro”, the CC50 amounted to 5800 nM.

As for `CSCC12CC3CC(C(=O)N[C@H]4CC[C@H](N)CC4)(C1)CC(c1ccccc1)(C3)C2` (mixture of isomers) [Example E6, rac-trans-N-(4-aminocyclohexyl)-3-((methylthio)methyl)-5-phenyladamantane-1-carboxamide], the EC50 in series [1] (Zaire ebolavirus, Vero, 24 h) was 0.05 µM; in series [2], 0.6 µM; in series [3] (setting [9]) it was 0.75 µM; in series [4], more than 1 µM. Further, the CC50 in “in vitro” amounted to 34600 nM.

As for `N[C@H]1CC[C@H](NC(=O)C23CC4CC(c5ccccc5)(CC(C2)C4CCCl)C3)CC1` (stereo partly drawn) [Example H5, trans-N-(4-aminocyclohexyl)-6-(2-chloroethyl)-3-phenyladamantane-1-carboxamide], the EC50 came to 0.01 µM in series [1] (Zaire ebolavirus, Vero, 24 h) and 0.27 µM in series [3] (setting [9]). Further, the “Percent parent compound remaining … Human” value in [5] worked out at 85%. Also, in series [6], the “Percent parent compound remaining at 60 minutes in liver microsomes, Mouse” value was 35%. Besides, the “Percent parent compound remaining … Guinea Pig” value in series [7] stood at 80.5%. This compound registered a CC50 in “in vitro” of 7260 nM.

Consider `CC1(C)CN(C(=S)[C@@]23C[C@H]4C[C@@](C)(C2)C[C@](c2ccccc2)(C4)C3)CC[C@@H]1N` [Example A1, ((S)-4-amino-3,3-dimethylpiperidin-1-yl)((1 S,3R,5R,7S)-3-methyl-5-phenyladamantan-1-yl)methanethione], for which the concentration giving a half-maximal response (EC50) is 0.061 µM in series [1] (Zaire ebolavirus, Vero, 24 h); 0.11 µM in [2]; 0.043 µM in series [3] (setting [9]); more than 1 µM in series [4]. In series [5], the “Percent parent compound remaining … Human” value is recorded as 72%. The “Percent parent compound remaining at 60 minutes in liver microsomes, Monkey” value in series [8] worked out at 19%. In addition, the “Percent parent compound remaining … Guinea Pig” value in series [7] was 32%. Besides, the CC50 in the series “in vitro” came out at 3800 nM.

Turning to `CC1(C)CN(C(=O)C23CC4CC(CSc5ccccc5)(C2)CC(c2ccccc2)(C4)C3)CC[C@@H]1N` (mixture of isomers) [Example E8, rac-((S)-4-amino-3,3-dimethylpiperidin-1-yl)(3-phenyl-5-((phenylthio)methyl)adamantan-1-yl)methanone], the EC50 in [1] (Zaire ebolavirus, Vero, 24 h) is 0.145 µM; in series [2] it was more than 1 µM; in series [3] (setting [9]), more than 1 µM; in series [4] it was more than 1 µM.

In the case of `N[C@H]1CC[C@H](NC(=O)C23CC4CC(Br)(C2)CC(c2ccccc2)(C4)C3)CC1` (mixture of isomers) [Example E3, rac-trans-N-(4-aminocyclohexyl)-3-bromo-5-phenyladamantane-1-carboxamide], the EC50 in series [1] (Zaire ebolavirus, Vero, 24 h) was 0.061 µM; in series [2], 0.19 µM; in series [3] (setting [9]) it was 0.34 µM. In addition, the “Percent parent compound remaining … Human” value in series [5] was 97.5%. For the same compound, in series [8], the “Percent parent compound remaining at 60 minutes in liver microsomes, Monkey” value is listed as 91%. The “Percent parent compound remaining … Guinea Pig” value in series [7] was 96%.

For the compound `CCC1C2CC3(C(=O)N4CC[C@H](N)C(C)(C)C4)CC1CC(c1ccccc1)(C2)C3` (stereo partly shown) [Example F5], the EC50 in series [1] (Zaire ebolavirus, Vero, 24 h) was found to be 0.046 µM; in [3] (setting [9]), 0.1 µM. In the series “in vitro”, this compound displayed a CC50 of 12300 nM.

Turning to `CC12CC3CC(C(=S)N4CC[C@H](N)C(C)(C)C4)(C1)CC(c1ccccc1)(C3)C2` (mixture of isomers) [Example C1], the 50% effective concentration (EC50) was determined as 0.06 µM in [1] (Zaire ebolavirus, Vero, 24 h); 0.085 µM in [2]; 0.035 µM in [3] (setting [9]).

On to `CC1(O)C2CC3(C(=O)N[C@H]4CC[C@H](N)CC4)CC1CC(c1ccccc1)(C2)C3` (stereo partly drawn) [Example H1, trans-N-(4-aminocyclohexyl)-6-hydroxy-6-methyl-3-phenyladamantane-1-carboxamide], for which the EC50 is more than 1 µM in series [1] (Zaire ebolavirus, Vero, 24 h) and more than 1 µM in series [3] (setting [9]).

`C[C@@]12CC3CC(C(=S)N[C@H]4CN5CCC4CC5)(C1)C[C@](c1ccccc1)(C3)C2` [Example B3]: the EC50 in series [1] (Zaire ebolavirus, Vero, 24 h) is 0.66 µM; in series [2], 0.31 µM; in [3] (setting [9]), 0.36 µM; in series [4] it was more than 1 µM.

Regarding `C[C@]12CC3CC(C(=S)N[C@H]4CN5CCC4CC5)(C1)C[C@@](c1ccccc1)(C3)C2` [Example A3], the EC50 in series [1] (Zaire ebolavirus, Vero, 24 h) is 0.067 µM; in series [2], 0.29 µM; in [3] (setting [9]), 0.08 µM; in [4], more than 1 µM. The compound further showed a CC50 in “in vitro” of 1770 nM.

Consider `C[C@@]12CC3CC(C(=S)N[C@H]4CC[C@H](N)CC4)(C1)C[C@](c1ccccc1)(C3)C2` [Example B2], for which the EC50 stood at 0.09 µM in [1] (Zaire ebolavirus, Vero, 24 h); 0.16 µM in series [2]; 0.26 µM in series [3] (setting [9]). In the series “in vitro”, this compound registered a CC50 of 3720 nM.

As for `C[C@]12CC3CC(C(=S)N[C@H]4CC[C@H](CN)CC4)(C1)C[C@@](c1ccccc1)(C3)C2` [Example A7], the EC50 stood at 0.075 µM in series [1] (Zaire ebolavirus, Vero, 24 h); 0.09 µM in series [2]; 0.095 µM in series [3] (setting [9]). The compound further had a CC50 in “in vitro” of 2860 nM.

Turning to `N[C@H]1CC[C@H](NC(=O)C23CC4CC(CSc5ccccc5)(C2)CC(c2ccccc2)(C4)C3)CC1` (mixture of isomers) [Example E7, rac-trans-N-(4-aminocyclohexyl)-3-phenyl-5-((phenylthio)methyl)adamantane-1-carboxamide], the EC50 in series [1] (Zaire ebolavirus, Vero, 24 h) was 0.056 µM; in [2], 1.21 µM; in series [3] (setting [9]), more than 1 µM; in series [4], more than 1 µM. The same compound registered a CC50 in “in vitro” of 4750 nM.
